The values that follow come from patent publication US20100120690A1, “Polypeptides Having Antimicrobial Activity and Polynucleotides Encoding Same” (Novozymes Adenium Biotech A/S, priority 2005, published 2010).

In one test the test system is M. luteus. In words: Minimal Inhibitory Concentration, NCCLS guidelines (Example 4). The format is cell-based, Micrococcus luteus. The conditions noted are these: purified peptide. Here is the method:
(§1) The Minimal Inhibitory Concentration (MIC, micrograms/mL) was determined to test for their antimicrobial activity following the NCCLS guidelines (Clinical and Laboratory Standards Institute; formerly known as National Committee for Clinical and Laboratory Standards).

A further test has as its system S. epidermis. As to the kind of experiment: Minimal Effective Concentration (MEC) assay. The test is classed as cell-based, Staphylococcus epidermidis. Here is the method:
Three antimicrobial polypeptides, which are variants of SEQ ID NO: 1, were tested for antimicrobial activity. A Minimal Effective Concentration assay (MEC, expressed as micrograms/mL) against different microorganisms was performed using the three plectasin mutants, Y40YR, N17R and Y25R following the protocol described in the book of Methods in Molecular Biology, Vol. 78, Antibacterial peptide protocol William M. Shafer, Human Press.

The next test has as its system B. subtilis. In words: Minimal Inhibitory Concentration, NCCLS guidelines (Example 4). The test is classed as cell-based, Bacillus subtilis. The following applies: purified peptide. On the procedure: as §1
The subject of test [1] is Staphylococcus aureus, ATCC 29737. In words: MIC, NCCLS/CLSI guidelines (Example 5), strain C. The format is cell-based. The following applies: average of two independent experiments. Summed up: (§2)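 Relative MIC category versus wild-type plectasin (0 >100%, 1 80-100%, 2 50-80%, 3 <50%), mean of two experiments. Determined per CLSI broth guidelines with expressed, purified peptides.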

Test [2] concerns Staphylococcus aureus, ATCC 29213. In words: MIC, NCCLS/CLSI guidelines (Example 5), strain A. The test is classed as cell-based. The following applies: average of two independent experiments. In a few lines:
as §2

In test [3] the test system is Staphylococcus aureus, MRSA ST80 (2003). In words: MIC, NCCLS/CLSI guidelines (Example 5), strain E. The conditions noted are these: average of two independent experiments. The test is classed as cell-based. Summed up:
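Expressed, purified plectasin wild-type and variant peptides were tested for minimal inhibitory concentration under NCCLS/CLSI guidelines. Values are the mean of two independent experiments, scored relative to wild-type plectasin MIC: 0 >100%, 1 80-100%, 2 50-80%, 3 <50%.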

The test system of a further test is Staphylococcus carnosus. In words: TAPS (Trans Acting Peptide System) assay, radial diffusion read-out. The test is classed as cell-based. Set-up: key: classified as 4>3>2>1; whereas 4 is better than 1; classified as 4>3>2>1; classified as 4>3>2>1; wildtype activity corresponds to 1. The conditions noted are these: peptide expressed in E. coli. On the procedure: A range of antimicrobial polypeptides, which are variants of SEQ ID NO: 1, were tested in the TAPS assay. TAPS may be used to identify new or improved genes encoding peptides that can kill or inhibit the growth of target cells (see PCT application WO 2004/033715). The TAPS assay, an acronym for Trans Acting Peptide System, is based on having a sensitive host producing a peptide followed by screening for its activity in trans against an indicator strain. The advantage of this system is based on that the antimicrobial peptide is expressed in the Gram-negative bacterium E. coli and its antimicrobial activity can be monitored on different microbes including Gram-negatives, positives or fungi. Additionally, TAPS offers the possibility to produce correctly folded AMPs containing disulfide bonds in the host cells, thereby retaining their antimicrobial activities.
The TAPS approach requires first, that expression of the peptide is under control of an inducible promoter with tight regulation, because the host cells are sensitive to the peptide when producing it. Secondly, the produced peptide has to be released to the media so that it can interact with the target organism.
The TAPS screening can be carried out either in solid or liquid media. On solid media, a plasmid library is initially introduced into E. coli host cells. […] In the next step, the filter containing the colonies is transferred to LB growth medium containing inducer (0.1% arabinose) to permit peptide synthesis. Subsequently, the target strain, for example S. carnosus, is overlaid onto the plate and allowed to grow for 12-16 hours at 37° C. Finally, visual inspection of the host cells capable of reducing the proliferation of the target cells is performed and the nucleotide sequence encoding for the antimicrobial peptide is recovered from the host cells. DNA sequence analysis of the variants is obtained to elucidate the nature of the peptide.
As mentioned above, the TAPS screening can also be performed using liquid medium. This procedure requires the use of robotics to analyze large number of clones. In this system, the host E. coli origami cells are transformed with the plasmid library and plated out on LB medium+0.2% glucose+ampicillin (200 mg/L). Independent colonies are then inoculated into 96 or 384-well plates containing 200 micro-L of TB medium+ampicillin (200 mg/L) and cultured overnight at 37° C. These cultures are then replicated robotically and grown to exponential phase until inducer (0.1% arabinose) is added to trigger peptide synthesis. The next step consists in hydrolyzing the cells such that the peptide is released to the media by hot acid hydrolysis. This treatment consists on adding 1 M sodium Phosphate buffer pH 2.3 to obtain a final pH approximately of 2.3 and incubating the cultures overnight at 80° C. Next day, a 25 micro-L aliquot of the hydrolyzed cultures is used to perform an activity test against the desired target organisms. The activity test performed was a Radial Diffusion Assay (RDA) where an aliquot of the hydrolyzed cultures was added to the agarose media inoculated with the target strain, S. carnosus. […] Measurements of the diameter of the clearing zones were performed to quantify the potency of the antimicrobial activity of the peptides.
The antimicrobial activity (against Staphylococcus carnosus) of the tested plectasin variants, which was measured using the TAPS assay, is shown in table 3. The antimicrobial activity corresponds to the clearing zone size and has been classified as 4>3>2>1; whereas 4 is better than 1, and wildtype activity corresponds to 1.

As for “GFGCNGPWDEDDMQCHNHCKSIKGYKGGYCAKGGFVCKCY (listed as Pseudoplectania nigrella) [wildtype, wildtype plectasin, parent antimicrobial polypeptide, reference compound]”, the “MIC against M. luteus” value with M. luteus turned out to be 32 micrograms/mL. In addition, the “MEC against S. epidermis” value in the test with S. epidermis amounted to 0.98 micrograms/mL. Further, the “MIC against B. subtilis” value in the test with B. subtilis was 1 micrograms/mL. Also, the “MIC, strain C” value in test [1] was “(4 μg/mL)”. In addition, the “Relative MIC, strain C” value in test [1] (relative to wildtype Plectasin) is recorded as 1 (80-100% of Plectasin wildtype MIC). The “MIC, strain A” value in test [2] was “(8 μg/mL)”. Further, in test [2] (relative to wildtype Plectasin), the “Relative MIC, strain A” value is reported as 1 (80-100% of Plectasin wildtype MIC). Further, the “MIC, strain E” value in test [3] is “(22 μg/mL)”. Further, in test [3] (relative to wildtype Plectasin), the “Relative MIC, strain E” value is 1 (80-100% of Plectasin wildtype MIC). Moreover, the “Activity (antimicrobial activity, clearing zone size)” value with Staphylococcus carnosus was 1.
